According to patent publication US11827628B2, “Compositions and methods for inhibition of the JAK pathway” (Rigel Pharmaceuticals, Inc., priority 2005, dated 2023):
Read-outs that look alike come from different tables or passages of the source.

Tests used:
Primary human T-cells = experiment: Primary Human T-Cell Proliferation Assay Stimulated with IL-2 (CellTiter-Glo); format: cell-based; settings: read-out: IC50, Example 42
Method in brief: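 Peripheral blood T-cells pre-activated with anti-CD3/anti-CD28 and IL-2 were washed free of IL-2, then cultured with compound plus IL-2 for 72 hours at 37° C, duplicate wells. Viability read as ATP by CellTiter-Glo luminescence; IC50 reported.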

[1] = tested on: IL-4 stimulated expression of CD23 in human Ramos B cells (JAK-1 and JAK-3); experiment: Assay for Ramos B-Cell Line Stimulated with IL-4 (CD23 upregulation, FACS); format: cell-based; settings: read-out: IC50, Example 41
Method in brief: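 Log-phase Ramos cells, 1 h compound pre-incubation at 37 °C; IL-4 50 units/mL final, 20-24 h; CD23-PE stain, FACS; IC50.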

[2] = Homo sapiens, T-cell, primary human T-cell proliferation stimulated with IL-2
[3] = Homo sapiens, Ramos, Ramos B-cell line stimulated with IL-4, CD23 expression by FACS
[4] = Homo sapiens, T-cell, primary human T-cells stimulated with IL-2, proliferation
[5] = Homo sapiens, Ramos, Ramos B cells stimulated with IL-4, CD23 expression by FACS
[6] = primary human T-cells stimulated with IL-2, proliferation
[7] = Ramos B cells stimulated with IL-4, CD23 expression by FACS
[8] = primary human T-cell proliferation stimulated with IL-2
[9] = Ramos B-cell line stimulated with IL-4, CD23 expression by FACS

## CNC(=O)COc1ccc(Nc2nc(Nc3ccc(C)c(S(N)(=O)=O)c3)ncc2F)cc1 [Compound I-145, N2-(3-Aminosulfonyl-4-methylphenyl)-5-fluoro-N4-(4-methylaminocarbonylmethoxyphenyl)-2,4-pyrimidinediamine]
Primary human T-cells; [2]
  IC50: 0.349 µM
[1]; [3]
  IC50: 0.542 µM

## NS(=O)(=O)c1cc(Nc2ncc(F)c(Nc3cccc4cccnc34)n2)ccc1F [VII-79, N2-(3-Aminosulfonyl-4-fluorophenyl)-5-fluoro-N4-(quinolin-8-yl)-2,4-pyrimidinediamine]
Primary human T-cells; [4]
  IC50: 3.2 µM
[1]; [5]
  IC50: 0.206 µM

## C#CCOc1ccc(Nc2nc(Nc3ccc(C)c(S(N)(=O)=O)c3)ncc2F)cc1C [VI-58, N2-(3-Aminosulfonyl-4-methylphenyl)-5-fluoro-N4-[3-methyl-4-(prop-2-ynyloxy)phenyl]-2,4-pyrimidinediamine]
Primary human T-cells; [4]
  IC50: 0.724 µM
[1]; [5]
  IC50: 0.164 µM

## Cc1ccc(Nc2ncc(F)c(Nc3ccc(Cn4cncn4)cc3)n2)cc1S(N)(=O)=O [III-101, N2-(3-Aminosulfonyl-4-methylphenyl)-5-fluoro-N4-{4-[1-(1,2,4-thazolyl)methyl]phenyl}-2,4-pyrimidinediamine]
Primary human T-cells; [6]
  IC50: 0.446 µM
[1]; [7]
  IC50: 0.24 µM

## C=CCNC(=O)COc1ccc(Nc2nc(Nc3ccc(S(N)(=O)=O)cc3)ncc2F)cc1 [Compound I-157, N4-(4-Allylaminocarbonylmethoxyphenyl)-N2-(4-aminosulfonylphenyl)-5-fluoro-2,4-pyrimidinediamine]
Primary human T-cells; [2]
  IC50: 1.89 µM
[1]; [3]
  IC50: 0.246 µM

## Cc1ccc(Nc2ncc(F)c(Nc3ccc(Cn4ccnc4C)cc3)n2)cc1S(N)(=O)=O [III-91, N2-(3-Aminosulfonyl-4-methylphenyl)-5-fluoro-N4-[4-(2-methyl-1-imidazolylmethyl)phenyl]-2,4-pyrimidinediamine]
Primary human T-cells; [6]
  IC50: 0.467 µM
[1]; [7]
  IC50: 0.143 µM

## Cc1ccc(Nc2nc(Nc3cccc(S(N)(=O)=O)c3)ncc2F)cc1C#N [VI-99, N2-(3-Aminosulfonylphenyl)-N4-(3-cyano-4-methylphenyl)-5-fluoro-2,4-pyrimidinediamine]
Primary human T-cells; [4]
  IC50: 0.617 µM
[1]; [5]
  IC50: 0.0685 µM

## Cc1ccc(Nc2ncc(F)c(Nc3cccc4ncccc34)n2)cc1S(N)(=O)=O [VII-67, N2-(3-Aminosulfonyl-4-methylphenyl)-5-fluoro-N4-(quinolin-5-yl)-2,4-pyrimidinediamine]
Primary human T-cells; [4]
  IC50: 0.768 µM
[1]; [5]
  IC50: 0.315 µM

## Cc1ccc(Nc2ncc(F)c(Nc3ccc(CCCCO)cc3)n2)cc1S(N)(=O)=O [VI-90, N2-(3-Aminosulfonyl-4-methylphenyl)-5-fluoro-N4-[4-(4-hydroxybutyl)phenyl]-2,4-pyrimidinediamine]
Primary human T-cells; [4]
  IC50: 3.97 µM
[1]; [5]
  IC50: 1.07 µM

## Cc1ccc(Nc2ncc(F)c(Nc3cccc(S(=O)(=O)N(C)C)c3)n2)cc1S(N)(=O)=O [IV-10, N2-(3-Aminosulfonyl-4-methylphenyl)-5-fluoro-N4-[3-(N,N-dimethylaminosulfonyl)phenyl]-2,4-pyrimidinediamine]
Primary human T-cells; [4]
  IC50: 0.714 µM
[1]; [5]
  IC50: 0.135 µM

## NS(=O)(=O)c1ccc(Nc2ncc(F)c(Nc3ccc(OCc4ccccn4)c(Cl)c3)n2)cc1 [Compound I-175, N2-(4-Aminosulfonylphenyl)-5-fluoro-N4-[4-(2-pyridinyl)-3-chloromethyleneoxyphenyl]-2,4-pyrimidinediamine]
Primary human T-cells; [8]
  IC50: 3.08 µM
[1]; [9]
  IC50: 0.147 µM

## C=CC(=O)NCc1ccc(Nc2nc(Nc3ccc(C)c(S(N)(=O)=O)c3)ncc2F)cc1 [III-46, N4-(4-Acrylamidomethylphenyl)-N2-(3-aminosulfonyl-4-methylphenyl)-5-fluoro-2,4-pyrimidinediamine]
Primary human T-cells; [2]
  IC50: 1.05 µM
[1]; [3]
  IC50: 0.211 µM

## NS(=O)(=O)c1cc(Nc2ncc(F)c(Nc3ccc(Cl)c(Cl)c3)n2)ccc1Cl [VI-3, N2-(3-Aminosulfonyl-4-chlorophenyl)-N4-(3,4-dichlorophenyl)-5-fluoro-2,4-pyrimidinediamine]
Primary human T-cells; [4]
  IC50: 8.79 µM
[1]; [5]
  IC50: 0.206 µM

## CNC(=O)COc1ccc(Nc2nc(Nc3ccc(Cl)c(S(N)(=O)=O)c3)ncc2F)cc1Cl [Compound I-152, N2-(3-Aminosulfonyl-4-chlorophenyl)-N4-(3-chloro-4-methylaminocarbonylmethoxyphenyl)-5-fluoro-2,4-pyrimidinediamine]
Primary human T-cells; [2]
  IC50: 1.54 µM
[1]; [3]
  IC50: 0.302 µM

## COc1cc(Nc2ncc(F)c(Nc3ccc(OCC#N)c(C)c3)n2)ccc1S(N)(=O)=O [Compound I-29, N2-(4-Aminosulfonyl-3-methoxy)phenyl-N4-(4-cyanomethoxy-3-methyl)phenyl-5-fluoro-2,4-pyrimidinediamine]
Primary human T-cells; [8]
  IC50: 0.502 µM
[1]; [9]
  IC50: 0.12 µM

## Cc1cc(Nc2ncc(F)c(Nc3ccc(OC(F)(F)F)c(Cl)c3)n2)cc(S(N)(=O)=O)c1F [VI-16, N2-(3-Aminosulfonyl-4-fluoro-5-methylphenyl)-N4-(3-chloro-4-trifluoromethoxyphenyl)-5-fluoro-2,4-pyrimidinediamine]
Primary human T-cells; [4]
  IC50: 3.91 µM
[1]; [5]
  IC50: 0.259 µM

## CCNC(=O)NCc1cccc(Nc2nc(Nc3ccc(C)c(S(N)(=O)=O)c3)ncc2F)c1 [III-118, N2-(3-aminosulfonyl-4-methyl)phenyl-N4-(3-ethylaminocarbonylaminomethyl)phenyl-5-fluoro-2,4-pyrimidinediamine]
Primary human T-cells; [6]
  IC50: 2.29 µM
[1]; [7]
  IC50: 0.624 µM

## C=CC(=O)NCc1ccc(Nc2nc(Nc3cccc(S(N)(=O)=O)c3)ncc2F)cc1 [III-45, N4-(4-Acrylamidomethylphenyl)-N2-(3-aminosulfonylphenyl)-5-fluoro-2,4-pyrimidinediamine]
Primary human T-cells; [2]
  IC50: 0.384 µM
[1]; [3]
  IC50: 0.293 µM

## CCC(=O)NCc1ccc(Nc2nc(Nc3cccc(S(N)(=O)=O)c3)ncc2F)cc1 [III-36, N2-(3-aminosulfonyl)phenyl-N4-(4-ethylcarbonylaminomethyl)phenyl-5-fluoro-2,4-pyrimidinediamine]
Primary human T-cells; [8]
  IC50: 0.382 µM
[1]; [9]
  IC50: 0.394 µM

## CNS(=O)(=O)c1cccc(Nc2nc(Nc3ccc(C)c(S(N)(=O)=O)c3)ncc2F)c1 [IV-12, N2-(3-Aminosulfonyl-4-methylphenyl)-5-fluoro-N4-[3-(N-methylaminosulfonyl)phenyl]-2,4-pyrimidinediamine]
Primary human T-cells; [4]
  IC50: 1.22 µM
[1]; [5]
  IC50: 0.257 µM

## CCNC(=O)NCc1ccc(Nc2nc(Nc3cccc(S(N)(=O)=O)c3)ncc2F)cc1 [III-120, N2-(3-Aminosulfonylphenyl]-N4-(4-ethylaminocarbonylaminomethylphenyl)-5-fluoro-2,4-pyrimidinediamine]
Primary human T-cells; [4]
  IC50: 0.554 µM
[1]; [5]
  IC50: 0.655 µM

## COc1ccc(Nc2nc(Nc3ccc(Cl)c(S(N)(=O)=O)c3)ncc2F)nc1N [VII-8, N2-(3-Aminosulfonyl-4-chlorophenyl)-N4-(2-amino-3-methoxypyrid-6-yl)-5-fluoro-2,4-pyrimidinediamine]
Primary human T-cells; [4]
  IC50: 8.63 µM
[1]; [5]
  IC50: 0.399 µM

## CCCN(Cc1ccc(Nc2nc(Nc3cccc(S(N)(=O)=O)c3)ncc2F)cc1)C(N)=O [III-126, N2-(3-aminosulfonyl)phenyl-N4-[4-(N-carbamoyl-N-propyl)aminomethyl]phenyl-5-fluoro-2,4-pyrimidinediamine]
Primary human T-cells; [6]
  IC50: 0.47 µM
[1]; [7]
  IC50: 0.197 µM

## NS(=O)(=O)c1ccc(Nc2ncc(F)c(Nc3cccc(CNC(=O)C4CC4)c3)n2)cc1 [III-38, N2-(4-aminosulfonyl)phenyl-N4-(3-cyclopropylcarbonylaminomethyl)phenyl-5-fluoro-2,4-pyrimidinediamine]
Primary human T-cells; [8]
  IC50: 1.13 µM
[1]; [9]
  IC50: 0.198 µM

## COC(=O)c1ccc(Nc2nc(Nc3ccc(C)c(S(N)(=O)=O)c3)ncc2F)s1 [IX-46, N2-(3-Aminosulfonyl-4-methylphenyl)-5-fluoro-N4-(5-methoxycarbonyl-thiophene-2-yl)-2,4-pyrimidinediamine]
Primary human T-cells; [4]
  IC50: 1.39 µM
[1]; [5]
  IC50: 0.0739 µM

## COc1cc(Nc2nc(Nc3ccc(C)c(S(N)(=O)=O)c3)ncc2F)ccc1CCC#N [III-25, N2-(3-Aminosulfonyl-4-methylphenyl)-N4-(4-cyanoethylene-3-methoxyphenyl)-5-fluoro-2,4-pyrimidinediamine]
Primary human T-cells; [8]
  IC50: 1.26 µM
[1]; [9]
  IC50: 0.272 µM

## Cc1ccc(Nc2ncc(F)c(N[C@H]3[C@@H](C(N)=O)[C@@H]4C=C[C@H]3C4)n2)cc1S(N)(=O)=O [VII-82, (1R,2R,3S,4S)N4-(3-Aminocarbonylbicyclo[2.2.1]hept-5-en-2-yl)-N2-(3-aminosulfonyl-4-methylphenyl)-5-fluoro-2,4-pyrimidinediamine]
Primary human T-cells; [4]
  IC50: 1.08 µM
[1]; [5]
  IC50: 0.313 µM

## N#CCOc1ccc(Nc2nc(Nc3ccc(S(N)(=O)=O)cc3)ncc2F)cc1 [Compound I-16, N2-(4-Aminosulfonyl)phenyl-N4-(4-cyanomethoxy)phenyl-5-fluoro-2,4-pyrimidinediamine]
Primary human T-cells; [8]
  IC50: 0.436 µM
[1]; [9]
  IC50: 0.124 µM

## CC(C)(C)OC(=O)NC1CCOc2ccc(Nc3nc(Nc4ccc(S(N)(=O)=O)cc4)ncc3F)cc21 (stereo not drawn) [VII-59, N2-(4-Aminosulfonylphenyl)-N4-(4-N-tert-butoxycarbonylamino-3,4-dihydro-2H-1-benzopyran-6-yl)-5-fluoro-2,4-pyrimidinediamine]
Primary human T-cells; [6]
  IC50: 2.99 µM
[1]; [7]
  IC50: 0.831 µM

## N#CCC(=O)Nc1ccc(Nc2nc(Nc3cccc(S(N)(=O)=O)c3)ncc2F)cc1Cl [Compound I-82, N2-(3-Aminosulfonylphenyl)-N4-[3-chloro-4-(N-cyanoacetyl)aminophneyl]-5-fluoro-2,4-pyrimidinediamine]
Primary human T-cells; [8]
  IC50: 1.38 µM
[1]; [9]
  IC50: 0.244 µM
